Patent US8415351B2 (priority 2007, dated 2013)

Key:
[1] = biological target: T1, HCV polymerase 1A (Δ21 NS5B, H77) (Hepatitis C virus genotype 1a, UniProt P27958); test: biochemical; details: IC50 1a
T1 construct: 20 to 50 nM Δ21 NS5B
Outline: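 Incorporation of 1 μM ^3H-UTP, with 20 μM each of CTP and ATP on 5 nM template RNA, ran 2–4 h at room temperature. Spermine-precipitated product was filtered and scintillation-counted. IC50 came from tight-binding non-linear regression of cpm against inhibitor concentration.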

[2] = biological target: T2, HCV polymerase 1B (Δ21 NS5B, BK) (Hepatitis C virus genotype 1b, UniProt P26663); test: biochemical
T2 construct: 20 to 50 nM Δ21 NS5B
Outline: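 Δ21 NS5B (genotype 1b, BK […]) preincubated 15 min RT with inhibitor, 2 mM MnCl2, pH 7.4, 60–125 μM GTP; started with 20 μM CTP/ATP, 1 μM 3H-UTP, 5 nM template RNA, run 2–4 h RT. Spermine-precipitated RNA filter-captured, scintillation counted; IC50 from tight-binding (Morrison) fit.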

[3] = tested on: genotype 1a-H77 subgenomic replicon cell line; test: microbe, parasite or virus in culture; format: cell-based, HCV; details: Hepatitis C virus, read-out: EC50 1a
[4] = tested on: genotype 1b-Con1 subgenomic replicon cell line; test: microbe, parasite or virus in culture; format: cell-based, HCV; details: Hepatitis C virus, read-out: EC50 1b

T1 sequence (P27958 2421-2990, stated change not applied): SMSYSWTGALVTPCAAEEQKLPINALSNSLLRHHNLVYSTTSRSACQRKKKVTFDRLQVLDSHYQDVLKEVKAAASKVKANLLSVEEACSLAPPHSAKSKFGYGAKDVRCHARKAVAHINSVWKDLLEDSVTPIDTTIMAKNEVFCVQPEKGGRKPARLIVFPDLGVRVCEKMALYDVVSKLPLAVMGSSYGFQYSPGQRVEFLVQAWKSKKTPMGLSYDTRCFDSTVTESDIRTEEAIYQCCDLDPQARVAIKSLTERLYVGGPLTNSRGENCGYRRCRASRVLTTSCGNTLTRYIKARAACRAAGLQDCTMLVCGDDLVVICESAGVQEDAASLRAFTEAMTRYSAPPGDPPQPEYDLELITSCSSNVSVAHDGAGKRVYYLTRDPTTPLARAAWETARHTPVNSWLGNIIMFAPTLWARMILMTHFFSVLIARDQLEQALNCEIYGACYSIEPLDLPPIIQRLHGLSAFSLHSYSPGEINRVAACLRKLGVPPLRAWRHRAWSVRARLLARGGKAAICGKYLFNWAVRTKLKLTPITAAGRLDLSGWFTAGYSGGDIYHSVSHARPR
T2 sequence (P26663 2420-2989, stated change not applied): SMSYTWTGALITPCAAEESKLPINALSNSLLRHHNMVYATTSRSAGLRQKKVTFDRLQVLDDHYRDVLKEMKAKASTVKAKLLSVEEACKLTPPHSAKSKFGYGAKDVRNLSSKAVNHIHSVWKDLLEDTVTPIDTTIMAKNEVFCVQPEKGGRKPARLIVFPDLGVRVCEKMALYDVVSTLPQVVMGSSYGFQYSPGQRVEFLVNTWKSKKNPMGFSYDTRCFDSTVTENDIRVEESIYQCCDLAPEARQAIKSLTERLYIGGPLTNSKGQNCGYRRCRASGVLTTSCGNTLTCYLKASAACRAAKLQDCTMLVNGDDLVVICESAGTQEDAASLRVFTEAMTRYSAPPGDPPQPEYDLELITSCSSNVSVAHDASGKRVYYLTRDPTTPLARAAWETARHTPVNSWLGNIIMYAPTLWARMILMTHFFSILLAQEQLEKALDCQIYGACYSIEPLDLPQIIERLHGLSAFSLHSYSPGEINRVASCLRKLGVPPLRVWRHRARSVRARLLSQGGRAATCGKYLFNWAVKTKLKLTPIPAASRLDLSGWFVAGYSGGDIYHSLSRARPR

| Structure (SMILES) | IC50 [1] | IC50 [2] | EC50 [3] | EC50 [4] |
| --- | --- | --- | --- | --- |
| COc1c(C(=O)Nc2ccc(NS(=O)(=O)CC(F)(F)F)cc2)cc(N2CCC(=O)NC2=O)cc1C(C)(C)C [IA-L3-1.55, 3-tert-butyl-5-(2,4-dioxotetrahydropyrimidin-1(2H)-yl)-2-methoxy-N-(4-(2,2,2-trifluoro-ethylsulfonamido)phenyl)benzamide] | 100 to 1000 nM | 100 to 1000 nM | > 1000 nM | > 1000 nM |
| COc1c(C#Cc2ccc(NS(C)(=O)=O)cc2F)cc(N2CCC(=O)NC2=O)cc1C(C)(C)C [IA-L2-1.12, N-(4-((3-tert-butyl-5-(2,4-dioxotetrahydropyrimidin-1(2H)-yl)-2-methoxyphenyl)ethynyl)-3-fluorophenyl)methanesulfonamide] | < 10 nM | < 10 nM | 10 to 100 nM | < 10 nM |
| COc1c(-c2ccc3c(CNS(C)(=O)=O)coc3c2)cc(-n2ccc(=O)[nH]c2=O)cc1C(C)(C)C [IB-L0-2.18, N-((6-(3-tert-butyl-5-(2,4-dioxo-3,4-dihydropyrimidin-1(2H)-yl)-2-methoxyphenyl)benzofuran-3-yl)methyl)methanesulfonamide] | < 10 nM | 10 to 100 nM | 100 to 1000 nM | 10 to 100 nM |
| CC(C)(C)c1cc(N2CCC(=O)NC2=O)cc(C(=O)Nc2ccc(NS(=O)(=O)CC(F)(F)F)cc2)c1O [IA-L3-1.9, 3-tert-butyl-5-(2,4-dioxotetrahydropyrimidin-1(2H)-yl)-2-hydroxy-N-(4-(2,2,2-trifluoroethylsulfonamido)phenyl)benzamide] | 100 to 1000 nM | 10 to 100 nM | > 1000 nM | > 1000 nM |
| CN(C(=O)c1cc(N2CCC(=O)NC2=O)cc(C(C)(C)C)c1O)c1ccc(NS(C)(=O)=O)cc1 [IA-L3-1.2, 3-tert-butyl-5-(2,4-dioxotetrahydropyrimidin-1(2H)-yl)-2-hydroxy-N-methyl-N-(4-(methyl-sulfonamido)phenyl)benzamide] | > 1000 nM | 10 to 100 nM | > 1000 nM | > 1000 nM |
| COc1c(-c2ccc(/C=N/NS(C)(=O)=O)c(F)c2)cc(N2CCC(=O)NC2=O)cc1C(C)(C)C [IA-L0-1.4, (E)-N′-((3′-tert-butyl-5′-(2,4-dioxotetrahydropyrimidin-1(2H)-yl)-3-fluoro-2′-methoxybiphenyl-4-yl)methylene)methanesulfonohydrazide] | 10 to 100 nM | 10 to 100 nM | 100 to 1000 nM | 10 to 100 nM |
| COc1c(C(=O)Nc2ccc(N(C(C)=O)S(C)(=O)=O)cc2)cc(N2CCC(=O)NC2=O)cc1C(C)(C)C [IA-L3-1.69, N-[4-(acetyl-methanesulfonyl-amino)-phenyl]-3-tert-butyl-5-(2,4-dioxo-tetrahydro-pyrimidin-1-yl)-2-methoxy-benzamide] | 100 to 1000 nM | 100 to 1000 nM | 100 to 1000 nM | 10 to 100 nM |
| COc1c(-c2ccsc2)cc(-n2ccc(=O)[nH]c2=O)cc1-c1ccc2c(c1)CC=C2CNS(C)(=O)=O [IB-L0-2.62, N-((6-(5-(2,4-dioxo-3,4-dihydropyrimidin-1(2H)-yl)-2-methoxy-3-(thiophen-3-yl)phenyl)-1H-inden-3-yl)methyl)methanesulfonamide] | 10 to 100 nM | 10 to 100 nM | 100 to 1000 nM | 10 to 100 nM |
| CC(C)(C)c1cc(N2CCC(=O)NC2=O)cc(C(=O)Nc2cc(CNS(C)(=O)=O)cs2)c1O [IA-L3-1.91, 3-tert-butyl-5-(2,4-dioxotetrahydropyrimidin-1(2H)-yl)-2-hydroxy-N-(4-(methylsulfonamidomethyl)thiophen-2-yl)benzamide] | 10 to 100 nM | 10 to 100 nM | 100 to 1000 nM | 100 to 1000 nM |
| COc1c(-c2ccc3c(c2)CC=C3CNS(C)(=O)=O)cc(-n2ccc(=O)[nH]c2=O)cc1-c1ccco1 [IB-L0-2.65, N-((6-(5-(2,4-dioxo-3,4-dihydropyrimidin-1(2H)-yl)-3-(furan-2-yl)-2-methoxyphenyl)-1H-inden-3-yl)methyl)methanesulfonamide] | 10 to 100 nM | < 10 nM | 100 to 1000 nM | 10 to 100 nM |
| COc1ccc(-c2cc(-n3ccc(=O)[nH]c3=O)cc(C(C)(C)C)c2OC)cc1/C=N/NS(C)(=O)=O [IB-L0-1.6, (E)-N′-((3′-tert-butyl-5′-(2,4-dioxo-3,4-dihydropyrimidin-1(2H)-yl)-2′,4-dimethoxybiphenyl-3-yl)methylene)methanesulfonohydrazide] | 100 to 1000 nM | 100 to 1000 nM | > 1000 nM | 100 to 1000 nM |
| COc1c(-c2ccc3c(c2)CCC3=O)cc(-n2ccc(=O)[nH]c2=O)cc1C(C)(C)C [IB-L0-2.50, 1-(3-tert-butyl-4-methoxy-5-(1-oxo-2,3-dihydro-1H-inden-5-yl)phenyl)pyrimidine-2,4(1H,3H)-dione] | 10 to 100 nM | 10 to 100 nM | 100 to 1000 nM | 100 to 1000 nM |
| CC(C)(C)c1cc(N2CCC(=O)NC2=O)cc(C(=O)Nc2ccccc2S(N)(=O)=O)c1O [IA-L3-1.22, 3-tert-butyl-5-(2,4-dioxotetrahydropyrimidin-1(2H)-yl)-2-hydroxy-N-(2-sulfamoylphenyl)benzamide] | 100 to 1000 nM | 10 to 100 nM | > 1000 nM | > 1000 nM |
| COc1c(-c2ccc3c(c2)CC[C@H]3C(C)(C)NS(C)(=O)=O)cc(-n2ccc(=O)[nH]c2=O)cc1C(C)(C)C (single isomer, unassigned) [IB-L0-2.37] | 100 to 1000 nM | 100 to 1000 nM | > 1000 nM | 100 to 1000 nM |
| COc1c(C(=O)Nc2ccc(NS(=O)(=O)Cc3ccccc3)cc2)cc(N2CCC(=O)NC2=O)cc1C(C)(C)C [IA-L3-1.57, 3-tert-butyl-5-(2,4-dioxotetrahydropyrimidin-1(2H)-yl)-2-methoxy-N-(4-(phenylmethyl-sulfonamido)phenyl)benzamide] | 10 to 100 nM | 100 to 1000 nM | 100 to 1000 nM | 100 to 1000 nM |
| COc1c(-c2ccc3c(c2)CC[C@H]3CNS(C)(=O)=O)cc(-n2ccc(=O)[nH]c2=O)cc1C(C)(C)C (single isomer, unassigned) [IB-L0-2.15] | < 10 nM | 10 to 100 nM | 100 to 1000 nM | 10 to 100 nM |
| CC(C)(C)c1cc(-n2ccc(=O)[nH]c2=O)cc(-c2ccc3c(CNS(C)(=O)=O)csc3c2)c1Cl [IB-L0-2.35, N-((6-(3-tert-butyl-2-chloro-5-(2,4-dioxo-3,4-dihydropyrimidin-1(2H)-yl)phenyl)benzo[b]thiophen-3-yl)methyl)methanesulfonamide] | 10 to 100 nM | 10 to 100 nM | > 1000 nM | 100 to 1000 nM |
| COc1c(C#Cc2ccc(NS(C)(=O)=O)cc2C)cc(-n2ccc(=O)[nH]c2=O)cc1C(C)(C)C [IB-L2-1.1, N-(4-((3-tert-butyl-5-(2,4-dioxo-3,4-dihydropyrimidin-1(2H)-yl)-2-methoxyphenyl)ethynyl)-3-methylphenyl)methanesulfonamide] | < 10 nM | 10 to 100 nM | < 10 nM | < 10 nM |
| COc1c(-c2ccc3c(c2)CCC3C(=O)NS(C)(=O)=O)cc(-n2ccc(=O)[nH]c2=O)cc1C(C)(C)C (stereo not shown) [IB-L0-2.34, 5-(3-tert-butyl-5-(2,4-dioxo-3,4-dihydropyrimidin-1(2H)-yl)-2-methoxyphenyl)-N-(methylsulfonyl)-2,3-dihydro-1H-indene-1-carboxamide] | 10 to 100 nM | 10 to 100 nM | > 1000 nM | 100 to 1000 nM |
